Like-named read-outs stand apart in the source and are kept apart here.
Assay: Simulated intestinal fluid (SIF) stability in the presence of various enzymes
Format: in vitro ADME
Details: for % Remaining of Initial: n = 1
Description: (§1) Studies were carried out in simulated intestinal fluid in the presence of various enzymes. Simulated intestinal fluid was prepared by dissolving 6.8 g of monobasic potassium phosphate in 1.0 L of water. Aliquots of this solution were taken and the pH was adjusted to 6.8. Individual enzymes were then spiked into aliquots for each experiment. A DMSO stock was first prepared for the test article. Aliquots of the DMSO solution were dosed into 700 μL of matrix, which had been pre-warmed to 37° C., at a final test article concentration of 1 μM. […] Samples were stored at 4° C. until the end of the experiment. After the final time point was sampled, the plate was mixed and then centrifuged at 3,000 rpm for 10 minutes. Calibration standards were prepared in matched matrix. […] Analytical conditions are outlined in Appendix 8-1.
as §1, with “10-1.” for “8-1.”
Studies were carried out in simulated intestinal fluid in the presence of various enzymes. Simulated intestinal fluid was prepared by dissolving 6.8 g of monobasic potassium phosphate in 1.0 L of water. Aliquots of this solution were taken and the pH was adjusted to 6.8. Individual enzymes were then spiked into aliquots for each experiment. A DMSO stock was first prepared for test article. Aliquots of the DMSO solution were dosed into 700 μL of matrix, which had been pre-warmed to 37° C., at a final test article concentration of 1 μM. […] Samples were stored at 4° C. until the end of experiment. After final time point was sampled, the plate was mixed and then centrifuged at 3,000 rpm for 10 minutes. Calibration standards were prepared in matched matrix. […] Analytical conditions are outlined in Appendix 13-1.
as §1, with “17-1.” for “8-1.”

[1] = SIF + Carboxypeptidase A, 0 min, 1 μM
[2] = SIF + Carboxypeptidase A, 15 min, 1 μM
[3] = SIF + Carboxypeptidase A, 30 min, 1 μM
[4] = SIF + Carboxypeptidase A, 60 min, 1 μM
[5] = SIF + Carboxypeptidase A, 120 min, 1 μM
[6] = SIF + Carboxypeptidase B, 0 min, 1 μM
[7] = SIF + Carboxypeptidase B, 15 min, 1 μM
[8] = SIF + Carboxypeptidase B, 30 min, 1 μM
[9] = SIF + Carboxypeptidase B, 60 min, 1 μM
[10] = SIF + Carboxypeptidase B, 120 min, 1 μM
[11] = SIF + Chymotrypsin, 0 min, 1 μM
[12] = SIF + Chymotrypsin, 15 min, 1 μM
[13] = SIF + Chymotrypsin, 30 min, 1 μM
[14] = SIF + Chymotrypsin, 60 min, 1 μM
[15] = SIF + Chymotrypsin, 120 min, 1 μM
[16] = SIF + Pancreatin, 120 min, 1 μM
[17] = simulated intestinal fluid with carboxypeptidase A, pH 6.8, SIF + Carboxypeptidase A, 1 μM, read-out: Half-life
[18] = simulated intestinal fluid with carboxypeptidase B, pH 6.8, SIF + Carboxypeptidase B, 1 μM, read-out: Half-life
[19] = simulated intestinal fluid with chymotrypsin, pH 6.8, SIF + Chymotrypsin, 1 μM, read-out: Half-life
[20] = simulated intestinal fluid with elastase, pH 6.8, SIF + Elastase, 1 μM, read-out: Half-life
[21] = simulated intestinal fluid with pancreatin, pH 6.8, SIF + Pancreatin, 1 μM, read-out: Half-life
[22] = simulated intestinal fluid with trypsin, pH 6.8, SIF + Trypsin, 1 μM, read-out: Half-life

SMILES: CCCCCCCCCCCCCCCC(=O)NCCOC(=O)CCC(=O)OCC(COC(=O)CCC)OC(=O)CCC (stereo not shown) [Compound I-11]
- % Remaining of Initial (n = 1) [1]: 100%
- % Remaining of Initial (n = 1) [2]: 73%
- % Remaining of Initial (n = 1) [3]: 78%
- % Remaining of Initial (n = 1) [4]: 42%
- % Remaining of Initial (n = 1) [5]: 18%
- % Remaining of Initial (n = 1) [6]: 100%
- % Remaining of Initial (n = 1) [7]: 68%
- % Remaining of Initial (n = 1) [8]: 50%
- % Remaining of Initial (n = 1) [9]: 33%
- % Remaining of Initial (n = 1) [10]: 9.6%
- % Remaining of Initial (n = 1) [11]: 100%
- % Remaining of Initial (n = 1) [12]: 84%
- % Remaining of Initial (n = 1) [13]: 63%
- % Remaining of Initial (n = 1) [14]: 42%
- % Remaining of Initial (n = 1) [15]: 21%
- % Remaining of Initial (n = 1) (SIF + Elastase, 0 min, 1 μM): 100%
- % Remaining of Initial (n = 1) (SIF + Elastase, 15 min, 1 μM): 70%
- % Remaining of Initial (n = 1) (SIF + Elastase, 30 min, 1 μM): 50%
- % Remaining of Initial (n = 1) (SIF + Elastase, 60 min, 1 μM): 33%
- % Remaining of Initial (n = 1) (SIF + Elastase, 120 min, 1 μM): 17%
- % Remaining of Initial (n = 1) (SIF + Pancreatin, 0 min, 1 μM): 100%
- % Remaining of Initial (n = 1) (SIF + Pancreatin, 15 min, 1 μM): <1.0%
- % Remaining of Initial (n = 1) (SIF + Pancreatin, 30 min, 1 μM): <1.0%
- % Remaining of Initial (n = 1) (SIF + Pancreatin, 60 min, 1 μM): <1.0%
- % Remaining of Initial (n = 1) [16]: <1.0%
- % Remaining of Initial (n = 1) (SIF + Trypsin, 0 min, 1 μM): 100%
- % Remaining of Initial (n = 1) (SIF + Trypsin, 15 min, 1 μM): 77%
- % Remaining of Initial (n = 1) (SIF + Trypsin, 30 min, 1 μM): 62%
- % Remaining of Initial (n = 1) (SIF + Trypsin, 60 min, 1 μM): 45%
- % Remaining of Initial (n = 1) (SIF + Trypsin, 120 min, 1 μM): 23%
- half-life at 1 μM [17]: 53 min
- half-life at 1 μM [18]: 34 min
- half-life at 1 μM [19]: 50 min
- half-life at 1 μM [20]: 37 min
- half-life at 1 μM [21]: < 1 min
- half-life at 1 μM [22]: 53 min

SMILES: CCCCC/C=C\C/C=C\CCCCCCCC(=O)OCC(COC(=O)CCC(=O)OCCNC(=O)CCCCCCCCCCCCCCC)OC(=O)CCCCCCC/C=C\C/C=C\CCCCC (stereo not shown) [Compound I-13]
- % Remaining of Initial (n = 1) [1]: 100%
- % Remaining of Initial (n = 1) [2]: 77%
- % Remaining of Initial (n = 1) [3]: 53%
- % Remaining of Initial (n = 1) [4]: 27%
- % Remaining of Initial (n = 1) [5]: 37%
- % Remaining of Initial (n = 1) [6]: 100%
- % Remaining of Initial (n = 1) [7]: 65%
- % Remaining of Initial (n = 1) [8]: 31%
- % Remaining of Initial (n = 1) [9]: 14%
- % Remaining of Initial (n = 1) [10]: 8.7%
- % Remaining of Initial (n = 1) [11]: 100%
- % Remaining of Initial (n = 1) [12]: 82%
- % Remaining of Initial (n = 1) [13]: 67%
- % Remaining of Initial (n = 1) [14]: 45%
- % Remaining of Initial (n = 1) [15]: 15%
- % Remaining of Initial (n = 1) (SIF + Elastase, 0 min, 1 μM): 100%
- % Remaining of Initial (n = 1) (SIF + Elastase, 15 min, 1 μM): 41%
- % Remaining of Initial (n = 1) (SIF + Elastase, 30 min, 1 μM): 16%
- % Remaining of Initial (n = 1) (SIF + Elastase, 60 min, 1 μM): 5.6%
- % Remaining of Initial (n = 1) (SIF + Elastase, 120 min, 1 μM): 5.0%
- % Remaining of Initial (n = 1) (SIF + Pancreatin, 0 min, 1 μM): 100%
- % Remaining of Initial (n = 1) (SIF + Pancreatin, 15 min, 1 μM): 1.3%
- % Remaining of Initial (n = 1) (SIF + Pancreatin, 30 min, 1 μM): 3.7%
- % Remaining of Initial (n = 1) (SIF + Pancreatin, 60 min, 1 μM): 3.4%
- % Remaining of Initial (n = 1) [16]: <1.0%
- % Remaining of Initial (n = 1) (SIF + Trypsin, 0 min, 1 μM): 100%
- % Remaining of Initial (n = 1) (SIF + Trypsin, 15 min, 1 μM): 78%
- % Remaining of Initial (n = 1) (SIF + Trypsin, 30 min, 1 μM): 70%
- % Remaining of Initial (n = 1) (SIF + Trypsin, 60 min, 1 μM): 55%
- % Remaining of Initial (n = 1) (SIF + Trypsin, 120 min, 1 μM): <1.0%
- half-life at 1 μM [17]: 47 min
- half-life at 1 μM [18]: 20 min
- half-life at 1 μM [19]: 49 min
- half-life at 1 μM [20]: 12 min
- half-life at 1 μM (simulated intestinal fluid with pancreatin, pH 6.8, SIF + Pancreatin, 1 μM, outside the sampled time range, read-out: Half-life, calculated (in parentheses)): 2.5 min
- half-life at 1 μM [21]: < 15 min
- half-life at 1 μM [22]: 47 min

SMILES: CCCCCCCCCCCCCCCC(=O)NCCOC(=O)CCC(=O)OC(COC(=O)CCC)COC(=O)CCC [Compound I-16]
- % Remaining of Initial [1]: 100%
- % Remaining of Initial [2]: 88%
- % Remaining of Initial [3]: 74%
- % Remaining of Initial [4]: 60%
- % Remaining of Initial [5]: 32%
- % Remaining of Initial [6]: 100%
- % Remaining of Initial [7]: 94%
- % Remaining of Initial [8]: 87%
- % Remaining of Initial [9]: 68%
- % Remaining of Initial [10]: 37%
- % Remaining of Initial [11]: 100%
- % Remaining of Initial [12]: 103%
- % Remaining of Initial [13]: 90%
- % Remaining of Initial [14]: 68%
- % Remaining of Initial [15]: 35%
- % Remaining of Initial (SIF + Elastase, 0 min, 1 μM): 100%
- % Remaining of Initial (SIF + Elastase, 15 min, 1 μM): 72%
- % Remaining of Initial (SIF + Elastase, 30 min, 1 μM): 50%
- % Remaining of Initial (SIF + Elastase, 60 min, 1 μM): 27%
- % Remaining of Initial (SIF + Elastase, 120 min, 1 μM): 7.1%
- % Remaining of Initial (SIF + Trypsin, 0 min, 1 μM): 100%
- % Remaining of Initial (SIF + Trypsin, 15 min, 1 μM): 89%
- % Remaining of Initial (SIF + Trypsin, 30 min, 1 μM): 82%
- % Remaining of Initial (SIF + Trypsin, 60 min, 1 μM): 62%
- % Remaining of Initial (SIF + Trypsin, 120 min, 1 μM): 37%
- half-life at 1 μM (simulated intestinal fluid with carboxypeptidase A, pH 6.8, SIF + Carboxypeptidase A, read-out: Half-life): 75 min
- half-life at 1 µM (simulated intestinal fluid with carboxypeptidase B, pH 6.8, SIF + Carboxypeptidase B, read-out: Half-life): 89 min
- half-life at 1 μM (simulated intestinal fluid with chymotrypsin, pH 6.8, SIF + Chymotrypsin, read-out: Half-life): 84 min
- half-life at 1 μM (simulated intestinal fluid with elastase, pH 6.8, SIF + Elastase, read-out: Half-life): 31 min
- half-life at 1 μM (simulated intestinal fluid with trypsin, pH 6.8, SIF + Trypsin, read-out: Half-life): 85 min

— patent US11547681B2, “N-acylethanolamide derivatives and uses thereof” (ELIEM THERAPEUTICS, INC., priority 2016, dated 2023)
